Laboratory results from patent publication US20090011975A1, “TARGETED BONE MARROW PROTECTION AGENTS” (Semafore Pharmaceuticals Inc., priority 2003, published 2009).
Read-outs that look alike come from different tables or passages of the source.

Columns and labels:
[1] = Conversion of PFT-α to PFT-β in human serum; type: in vitro ADME; conditions: for peak area (254 nm), Human Serum Stability: PFT-α initially 50 μMolar, 37° C.
Protocol: (§1) A 10.0 mMolar solution of PFT-α in DMSO was prepared. A 5 μL aliquot of the solution was diluted with 495 μL of methanol, and further diluted with 500 μL of acetonitrile to produce a comparison standard 50 μMolar solution. Five 5 μL aliquots of 10.0 mMolar solution of PFT-α in DMSO was added to each of five plastic vials containing 495 μL of human serum (Sigma-Aldrich), and the vials were capped. The solution was mixed thoroughly and allowed to stand at 37° C. At different timepoints, each of the 5 vials were removed from heat, cooled to room temperature, and the solution was diluted with 500 μL of acetonitrile to precipitate proteins and nondesirable solutes. Each mixture was vortexed vigorously, passed through a 0.2 um Whatman Uniprep sample filter device, and analyzed by LC-MS (the methods of which are described in Example 12). The UV areas for the peak corresponding to PFT-α (retention time=1.8 minutes) and for the peak corresponding to PFT-β (retention time=3.9 minutes) were tabulated.

[2] = system: p53-mediated transcription; assay: p53-mediated transcription, MASPIN promoter-luciferase in HBECs; type: cell-based, human; conditions: PFT-β liberated from (BH) on hydroxyapatite, HBECs transfected with wild type p53 plasmid (FIG. 27)
Protocol: The binding to hydroxyapatite to the bone targeted prodrug (BH) and its conversion over time to liberate PFT-β was described in Example 10. The PFT-β liberated (5.11 millimolar solution from Example 10) was assayed for its biological activity by evaluating the degree of p53-mediated transcription in the presence and absence of the liberated PFT-β. The assay comprised transiently transfecting human brain endothelial cells (HBECs) with a plasmid comprising the MASPIN promoter, which contains two p53 binding sites, operably linked to the luciferase gene. A group of HBECs was transiently transfected with a plasmid encoding wild type p53. Thus, if p53 produced in the transfected HBECs is active, transcription of the luciferase gene will be activated and the produced luciferase detected. p53-mediated transcription is measured relative to the internal control plasmid pCMVβ-galactosidase to control for transfection efficiency.
The results of the assay are set forth in the bar graph of FIG. 27, the data of which represents fold induction of p53-specific transcriptional activity in HBECs. Column 1 of FIG. 27 represents a negative control resulting from HBECs not transfected with the wild type p53 plasmid. Column 2 of FIG. 27 represents data obtained from HBECs transfected with the wild type p53 plasmid which were not exposed to PFT-β. […]

[3] = Conversion of PFT-α to PFT-β in phosphate buffer pH 7.4; type: physicochemical; conditions: for peak area (254 nm), Phosphate Buffer pH = 7.4 Stability: PFT-α initially 50 μMolar, 37° C.
Protocol: as §1
The method set forth above was repeated wherein 50 mMolar phosphate buffer (pH=7.4) was substituted for human serum.

Aqueous solubility = type: physicochemical
[4] = system: C57BL strain and Balb/c strain mice; conditions: cited from earlier work
[5] = system: C8 cells (mouse embryo fibroblasts transformed with E1a+ras); conditions: cited from earlier work
p53-null mice = conditions: PFT-α injections; cited from earlier work
[6] = Reversibility of acyl methylenes in phosphate buffer; type: physicochemical; conditions: 50 mM phosphate buffer
Protocol: A prodrug strategy was devised using cyclized PFT-β and a structure activity relationship to obtain a prodrug linkage that converts to the native drug with about a 3 day half-life. A key novel intermediate (BI) (the chemical structure of which is set forth in FIG. 22) was generated in greater than 90% yield and >95% purity. […] This allowed preparation of the acyl methylene compounds recited in Table 2. All of the compounds of Table 2 were diluted into 50 mM phosphate buffer at pH=7.4 and pH=4.8 at room temperature and analyzed over time for stability. The amount of PFT-β was quantitated, and the amount of acyl methylene disappearing over time was quantitated by LCMS. A half-life for the cleavage of the acyl methylenes to generate PFT-β under relevant physiological conditions was determined. These half lives are set forth in Table 2 associated with the structures.

[7] = Affinity of bone targeting agents to hydroxyapatite (supernatant LCMS); type: binding; conditions: 0.100 mM test solution in TBS pH 7.40, HA suspension 1.00 or 10.0 mg/ml, 1 hour (FIG. 25)
Protocol: To determine the affinity of the bone targeting agents to hydroxyapatite, the method described in Willson et al., Biorganic & Medicinal Chemistry Letters, 6(9), 1043-1046 (1996) for determining bone affinity using HPLC retention on a hydroxyapatite column was modified. The affinity of several bone targeting agents was determined using the following method. […] The suspension was diluted to prepare a 1.00 mg/ml HA suspension by stirring on a magnetic stir plate at the slowest speed necessary to create a uniform suspension appropriate for sampling. Each tested compound was dissolved in TBS at a concentration of 0.100 mM. 200 μl of test solution was mixed with 200 μl of TBS, HA at 1.00 mg/ml, or HA at 10.0 mg/ml, and agitated on an orbital shaker at 200 rpm for 1 hour. Each experiment was performed in triplicate. The supernatant solution was analyzed using single ion monitoring (SIM) mass spectral mode on a Shimadzu LCMS-2010 liquid chromatograph-mass spectrometer. The SIM counts in the test compound/TBS solutions were set at 100%. The amount of test compound present in the HA supernatant test solutions was expressed as a percentage of the amount of test compound available with no hydroxyapatite present. Tetracycline was included as a positive control.

[8] = Liberation of PFT-β from hydroxyapatite-bound (BH) over time; type: physicochemical
Protocol: The hydroxyapatite of the suspension was then resuspended in wash number 2 supernatant by pipetting up and down. A 20 μL aliquot of the resulting 900 μL suspension was removed and extracted with methanol. An analysis of the methanol extract by LCMS (versus a standard of (BH)) indicated no detectable (BH) was extractable from the hydroxyapatite sample known to contain the 1.26 μMoles of (BH) described above. […] The suspension was then gently rocked for 34 hours. A 20 μL aliquot was removed and analyzed after extraction with methanol. […] An addition aliquot of the gently mixed suspension was obtained after a total 153 hours contained no detectable, extractable (BH).

[9] = Binding of (BH) to hydroxyapatite and resistance to washing
Protocol: The final conjugate (BH) (see Table 2) was synthesized (assembled) as described and purified by HPLC. […] A 900 μL aliquot of 1.9 mM (BH) in 5 mM phosphate buffer at pH=7 was mixed with 100 μL of an hydroxyapatite suspension (25 weight percent hydroxyapatite; Sigma) containing approximately 25 mg of hydroxyapatite. The suspension was mixed gently for 15 minutes and then centrifuged at 10,000 rpm for one minute. A 100 μL aliquot was removed and analyzed by electrospray LCMS and compared to a standard solution that had not been exposed to hydroxyapatite. […] The supernatant was decanted from the hydroxyapatite solid, an additional 900 μL of de-ionized water was added, and the mix was shaken vigorously for 20 seconds. The suspension was then centrifuged at 10,000 rpm for one minute. A 100 μL aliquot of suspension was removed and analyzed by electrospray LCMS and compared to the standard solution that had not been exposed to hydroxyapatite. […] The supernatant was decanted from the hydroxyapatite solid, an additional 900 μL of de-ionized water was added, and the mix was shaken vigorously for 20 seconds. The suspension was then centrifuged at 10,000 rpm for one minute. A 100 μL aliquot was removed and analyzed by electrospray LCMS and compared to the standard solution. […] Thus, of the original 1.74 μMoles of (BH) present in the supernatant and exposed to the hydroxyapatite, a total of 0.48 μMoles was recovered in the original supernatant plus the two water washes.

[10] = pH 4.8, room temperature, read-out: Half Life pH = 4.8
[11] = pH 7.4, room temperature, read-out: Half Life pH = 7.4 (converted)

| half-life at 100 µM [6, 10] [days] | half-life at 100 µM [6, 11] [days] | Compound | peak area (254 nm), Human Serum Stability ([1]; 0 hours) | peak area (254 nm), Human Serum Stability ([1]; 1.5 hours) | peak area (254 nm), Human Serum Stability ([1]; 3 hours) | peak area (254 nm), Human Serum Stability ([1]; 4.5 hours) | peak area (254 nm), Human Serum Stability ([1]; 17 hours) | peak area (254 nm), Phosphate Buffer pH = 7.4 Stability ([3]; 0 hours) | peak area (254 nm), Phosphate Buffer pH = 7.4 Stability ([3]; 1.5 hours) | peak area (254 nm), Phosphate Buffer pH = 7.4 Stability ([3]; 3 hours) | peak area (254 nm), Phosphate Buffer pH = 7.4 Stability ([3]; 4.5 hours) | peak area (254 nm), Phosphate Buffer pH = 7.4 Stability ([3]; 17 hours) | affinity to hydroxyapatite [7] | also measured |
| --- | --- | --- | --- | --- | --- | --- | --- | --- | --- | --- | --- | --- | --- | --- |
|  |  | Cc1ccc(-c2cn3c4c(sc3n2)CCCC4)cc1 [PFT-β, 2-p-Tolyl-5,6,7,8-tetrahydro-benzo[d]imidazo[2,1-b]thiazole] | 13781 | 259004 | 448826 | 512198 | 696098 | 13032 | 176201 | 307793 | 427152 | 601840 |  | biological activity (inhibition of p53-mediated transcription) [2]: biologically active; aqueous solubility (Aqueous solubility): about 3 μMolar |
|  |  | Cc1ccc(C(=O)Cn2c3c(sc2=N)CCCC3)cc1 [PFT-α, 2-[2-imino-4,5,6,7-tetrahydro-1,3-benzothiazol-3(2H)-yl]-1-(4-methylphenyl)-1-ethanone] | 547169 | 312351 | 156823 | 118842 | 7927 | 584109 | 448284 | 303800 | 227004 | 18724 |  | time in which half of PFT-α is converted to PFT-β ([1]; human serum, initial 50 μMolar): about 3 hours; tumors or pathological lesions in gamma-irradiated survivors ([4]; 7 months post-irradiation): No tumors or pathological lesions; rescue from 60% killing doses of gamma radiation ([4]; single intraperitoneal injection 2.2 mg/kg, 8 Gy C57BL, 6 Gy Balb/c): completely rescued; weight-loss versus controls ([4]; treated irradiated animals): less weight-loss than controls; inhibition of apoptosis induced by doxorubicin, etoposide, paclitaxel, cytosine arabinoside, UV light, and gamma radiation ([5]; 10 micromolar concentration): inhibited apoptosis; protection on pretreatment of cells and removal of the compound before the stress-inducing event ([5]; pretreatment, compound removed before stress): no significant protection; time in which half of PFT-α is converted to PFT-β ([3]; phosphate buffer, initial 50 μMolar): about 1.8 hours; protective effect in p53-null mice treated with radiation (p53-null mice): no protective effect |
| > 20.8 | > 20.8 | CC(=O)OC[n+]1c(-c2ccc(C)cc2)cn2c3c(sc21)CCCC3 [BG] |  |  |  |  |  |  |  |  |  |  |  |  |
| > 20.8 | 3.23 | Cc1ccc(-c2cn3c4c(sc3[n+]2COC(=O)c2ccc(CN(CP(=O)(O)O)CP(=O)(O)O)cc2)CCCC4)cc1 [BH] |  |  |  |  |  |  |  |  |  |  | almost identical to that of (BC) | (BH) extractable with methanol from hydroxyapatite ([8]; 34 hours): no detectable; prodrug cleavage product PFT-β, percent of the 1.26 μMoles sorbed ([8]; 34 hours): 19.6%; (BH) extractable with methanol from hydroxyapatite ([8]; 105 hours): no detectable; prodrug cleavage product PFT-β, percent of the 1.26 μMoles sorbed ([8]; 105 hours): 29.1%; (BH) extractable with methanol from hydroxyapatite ([8]; 153 hours): no detectable; prodrug cleavage product PFT-β, percent of the 1.26 μMoles sorbed ([8]; 153 hours): 37.5%; (BH) extractable with methanol from hydroxyapatite ([8]; start, after washes): no detectable; prodrug cleavage product PFT-β, percent of the 1.26 μMoles sorbed ([8]; start, after washes): < 7%; originally present (BH) bound to the hydroxyapatite solid ([9]; 1.9 mM in 5 mM phosphate buffer pH 7, approx. 25 mg hydroxyapatite, 15 minutes): 77%; originally present (BH) in the supernatant, wash number 1 ([9]; 900 μL de-ionized water wash 1): 3.5%; originally present (BH) in the supernatant, wash number 2 ([9]; 900 μL de-ionized water wash 2): 0.6%; (BH) remained in the supernatant solution ([9]; after 15 minutes with hydroxyapatite): 23%; (BH) adsorbed to the hydroxyapatite so as to resist washing off ([9]; of original 1.74 μMoles): 1.26 µmol; total recovered in the original supernatant plus the two water washes ([9]; of original 1.74 μMoles): 0.48 µmol |
|  |  | Phenyphosphonic acid [BK] |  |  |  |  |  |  |  |  |  |  | no observable affinity |  |
